Measurements from patent publication US12611387B2, “Compound and composition for inducing neuroprotection” (REST THERAPEUTICS, priority 2020, dated 2026).

System: Aβ25-35 oligomer-intoxicated mice
Experiment: Morris water maze, symptomatic treatment
Format: in vivo
Details: symptomatic design (not shown)
Method: The test compounds were tested for their ability to decrease the cognitive symptoms of Aβ25-35 oligomer-induced neurodegeneration, i.e. their ability to provide symptomatic anti-amnestic treatment (FIGS. 1A and 1B). In brief, to test the symptomatic effect of the test compounds, they were administered 8 days after the icy injection of the Aβ25-35 oligomers, 30 minutes before the YMT and PAT memory tests were conducted or 30 minutes before the test, but after the training session, in the case of the MWT or ORT (FIG. 1A). The Hamlet Test® (FIG. 1B) involves a 2-week training session (4 hr/day) followed by a test (max. 10 min) under water deprivation conditions and under normal conditions; the Aβ25-35 peptide is injected after this first test. […]
This test is used to assess long-term spatial reference memory. […] The animals' swimming behaviour was recorded (Videotrack® software, Viewpoint), and the trajectories, latencies and distances covered were measured. […] Median latency (time taken to find the platform) was calculated for each training day and expressed for the group as the mean latency±standard deviation. […] Each mouse was left in the water for 60 seconds and its swimming behaviour was recorded. The time spent in the north-eastern quadrant, which originally contained the platform (T), was measured and compared to the average time spent in the other quadrants (o).

NC12CC3CC(C1)CC(CCF)(C3)C2 [FENM, 3-(2-fluoroethyl)adamantan-1-amine]
anti-amnestic effect in Morris water maze: confirmed
